Data published in US12466813B2, “PRC1 inhibitors and methods of treatment therewith” (The Regents of the University of Michigan, priority 2018, dated 2025).

The molecules below were run against T1, RING1B-BMI1 (Homo sapiens, UniProt Q99496) (assay: KD classes of Table A (direct binding to Ring1B-Bmi1)). Conditions: class given in Table A.
T1 sequence (Q99496 1-336): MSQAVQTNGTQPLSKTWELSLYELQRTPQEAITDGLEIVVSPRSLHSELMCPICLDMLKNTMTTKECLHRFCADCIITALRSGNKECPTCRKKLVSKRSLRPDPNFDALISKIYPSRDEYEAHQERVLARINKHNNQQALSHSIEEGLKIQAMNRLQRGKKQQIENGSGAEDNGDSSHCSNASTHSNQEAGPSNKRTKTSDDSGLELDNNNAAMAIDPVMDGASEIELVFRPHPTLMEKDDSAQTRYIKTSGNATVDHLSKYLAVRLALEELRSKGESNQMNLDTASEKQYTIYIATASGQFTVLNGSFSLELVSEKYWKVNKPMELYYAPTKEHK
T1 sequence (P35226 1-326 partner): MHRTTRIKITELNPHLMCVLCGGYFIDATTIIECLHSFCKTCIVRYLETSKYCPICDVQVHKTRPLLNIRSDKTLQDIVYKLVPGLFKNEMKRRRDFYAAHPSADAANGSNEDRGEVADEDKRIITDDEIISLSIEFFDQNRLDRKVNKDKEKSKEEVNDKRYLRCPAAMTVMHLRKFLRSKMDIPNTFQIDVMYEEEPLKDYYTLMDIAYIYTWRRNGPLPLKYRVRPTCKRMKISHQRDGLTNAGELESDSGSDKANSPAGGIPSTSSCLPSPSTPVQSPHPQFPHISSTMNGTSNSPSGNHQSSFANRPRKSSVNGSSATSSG
For `CCCc1c(-c2cccc3[nH]ccc23)[nH]c(C(=O)O)c1-c1ccccc1Cl` [compound 95], the Kd was 50 to 100 µM.
`COc1ccc(-c2c(C(=O)O)[nH]c(-c3cc(F)cc4[nH]ccc34)c2C(C)C)c2cc[nH]c12` [compound 37] was tested, and the Kd was less than 20 µM.
`CSCc1ccc2[nH]ccc2c1-c1c(C(=O)O)[nH]c(-c2cc(F)cc3[nH]ccc23)c1C(C)C` [compound 238] showed a Kd of less than 20 µM.
`C#CCCCCC(=O)NCCCCCC(=O)NCCc1c[nH]c2cc(F)cc(-c3[nH]c(C(=O)O)c(-c4c(Cl)ccc5[nH]ccc45)c3C(C)C)c12` [compound 68] was tested, and the Kd was less than 20 µM.
In the case of `CC(C)c1c(-c2cc(C(F)(F)F)cc3[nH]ccc23)[nH]c(C(=O)O)c1-c1c(Cl)ccc2[nH]ccc12` [compound 10], the Kd is reported as less than 20 µM.
For `CC(C)c1c(-c2cc(F)cc3[nH]ccc23)[nH]c(C(=O)O)c1-c1c[nH]c2ccccc12` [compound 203, 5-(6-fluoro-1H-indol-4-yl)-3-(1H-indol-3-yl)-4-isopropyl-1H-pyrrole-2-carboxylic acid], the Kd was less than 20 µM.
`CC(C)c1c(-c2cc(F)cc3[nH]ccc23)[nH]c(C(=O)O)c1-c1cccc2nc[nH]c12` [compound 206] was tested, and the Kd was less than 20 µM.
`CC(C)CCOc1cc(-c2c(C(=O)O)[nH]c(-c3cc(F)cc4[nH]ccc34)c2C(C)C)c2cc[nH]c2c1` [compound 196] showed a Kd of less than 20 µM.
`CC(C)c1c(-c2cc(F)cc3[nH]ccc23)[nH]c(C(=O)O)c1-c1cccc2[nH]c(CS(C)(=O)=O)cc12` [compound 230] gave a Kd of less than 20 µM.
With `CCc1cc(-c2c(C(=O)O)[nH]c(-c3cc(F)cc4[nH]ccc34)c2C(C)C)c2cc[nH]c2c1` [compound 45] the Kd was less than 20 µM.
In the case of `O=C(O)c1ccc(-c2ccccc2O)[nH]1` [compound 130], the Kd is reported as greater than 100 µM.
`CC(C)CCc1c[nH]c2cccc(-c3c(C(=O)O)[nH]c(-c4cc(F)cc5[nH]ccc45)c3C(C)C)c12` [compound 188] was tested, and the Kd was less than 20 µM.
Work on `COc1cccc(-c2c(C(=O)O)[nH]c(-c3cc(F)cc4[nH]ccc34)c2C(C)C)c1Cl` [compound 57, 3-(2-chloro-3-methoxyphenyl)-5-(6-fluoro-1H-indol-4-yl)-4-isopropyl-1H-pyrrole-2-carboxylic acid] yielded a Kd of less than 20 µM.
In the case of `COc1cc(Cl)c(-c2c(C(=O)O)[nH]c(-c3cccc4[nH]ccc34)c2C(C)C)cc1[N+](=O)[O-]` [compound 3], the Kd is reported as less than 20 µM.
`CC(C)c1c(-c2cc(F)cc3[nH]ccc23)[nH]c(C(=O)O)c1-c1cccc(Oc2nccs2)c1` [compound 64] was tested, and the Kd was less than 20 µM.
`COc1cc(-c2c(C(=O)O)[nH]c(-c3cc(F)cc4[nH]ccc34)c2C(C)C)c2cc[nH]c2c1` [compound 39] was tested, and the Kd was less than 20 µM.
For `CCc1c(-c2cccc3[nH]ccc23)[nH]c(C(=O)O)c1-c1cccc(OC)c1` [compound 85], the Kd was 20 to 50 µM.
Molecule `COC(=O)c1ccc(-c2ccccc2)[nH]1` [compound 158] has a Kd greater than 100 µM.
`CCc1c(-c2cccc3[nH]ccc23)[nH]c(C(=O)O)c1-c1c(Cl)cc(OC)c2[nH]ccc12` [compound 18] showed a Kd of less than 20 µM.
Molecule `CCc1c(-c2c(OC)cccc2OC)[nH]c(C(=O)O)c1-c1ccc(OC)cc1Cl` [compound 104] has a Kd greater than 100 µM.
`CC(C)c1c(-c2cc(F)cc3[nH]ccc23)[nH]c(C(=O)O)c1-c1cccc2ncsc12` [compound 204] gave a Kd of less than 20 µM.
Work on `CCc1c(-c2cccc3[nH]ccc23)[nH]c(C(=O)O)c1-c1ccc(N)cc1` [compound 105] yielded a Kd greater than 100 µM.
Molecule `CC(C)c1c(-c2cccc3[nH]ccc23)[nH]c(C(=O)O)c1-c1ccccc1Cl` [compound 17] has a Kd of less than 20 µM.
Molecule `CCn1ccc2c(-c3ccc(C(=O)O)[nH]3)cccc21` [compound 122] has a Kd greater than 100 µM.
`O=C(O)c1ccc(-c2cccc3ncccc23)[nH]1` [compound 160] gave a Kd greater than 100 µM.
With `CC(C)c1c(-c2cc(F)cc3[nH]ccc23)[nH]c(C(=O)O)c1-c1ccnc2[nH]c(C3=CCN(S(C)(=O)=O)CC3)cc12` [compound 256] the Kd was less than 20 µM.
In the case of `CC(C)c1c(-c2cccc3[nH]ccc23)c(C(=O)O)n2c1-c1cc(F)cc3ccn(c13)[C@H](C)C2` [compound 272], the Kd is reported as less than 20 µM.
Work on `CCc1c[nH]c2cc(OC)cc(-c3c(C(=O)O)[nH]c(-c4cc(F)cc5[nH]ccc45)c3C(C)C)c12` [compound 186] yielded a Kd of less than 20 µM.
`Cn1ccc2c(-c3[nH]c(C(=O)O)c4c3CCCC4)cccc21` [compound 110] was tested, and the Kd was greater than 100 µM.
With `COc1ccc(-c2cc3c(-c4c(C(=O)O)[nH]c(-c5cc(F)cc6[nH]ccc56)c4C(C)C)ccnc3[nH]2)cc1` [compound 252] the Kd was less than 20 µM.
`CCC(C)c1c(-c2cccc3[nH]ccc23)[nH]c(C(=O)O)c1-c1cccc2[nH]ccc12` (stereo not shown) [compound 73] showed a Kd of less than 20 µM.
`CC(C)c1c(-c2cc(F)cc3[nH]ccc23)[nH]c(C(=O)O)c1-c1cccc2[nH]c(C(=O)O)cc12` [compound 47] showed a Kd of less than 20 µM.
For `CC(CO)c1c(-c2cccc3[nH]ccc23)[nH]c(C(=O)O)c1-c1cccc2[nH]ccc12` (stereo not shown) [compound 31], the Kd was less than 20 µM.
In the case of `Nc1ccccc1-c1ccc(C(=O)O)[nH]1` [compound 147], the Kd is reported as greater than 100 µM.
Work on `O=C(O)c1ccc(-c2ccccc2)s1` [compound 152] yielded a Kd greater than 100 µM.
In the case of `CCNc1ccc2[nH]ccc2c1-c1c(C(=O)O)[nH]c(-c2cc(F)cc3[nH]ccc23)c1C(C)C` [compound 240], the Kd is reported as less than 20 µM.
In the case of `C#CCOCCOCCOCCC(=O)NCCc1c[nH]c2cc(F)cc(-c3[nH]c(C(=O)O)c(-c4c(Cl)ccc5[nH]ccc45)c3C(C)C)c12` [compound 69], the Kd is reported as less than 20 µM.
In the case of `CCc1c(-c2c(C)ccc3[nH]ccc23)[nH]c(C(=O)O)c1-c1cccc2[nH]ccc12` [compound 2], the Kd is reported as less than 20 µM.
`CC(C)c1c(-c2cc(F)cc3[nH]ccc23)[nH]c(C(=O)O)c1-c1cccc2[nH]c(-c3nccs3)cc12` [compound 224] showed a Kd of less than 20 µM.
In the case of `COc1cc(Cl)c(-c2c(C(=O)O)[nH]c(-c3cccc4[nH]ccc34)c2C(C)C)cc1N` [compound 5], the Kd is reported as less than 20 µM.
For `Nc1cccc(-c2ccc(C(=O)O)[nH]2)c1` [compound 125], the Kd was greater than 100 µM.
With `Cc1cc(-c2c(C(=O)O)[nH]c(-c3cc(F)cc4[nH]ccc34)c2C(C)C)c2cc[nH]c2c1` [compound 51] the Kd was less than 20 µM.
`COc1cc(-c2c(C(=O)O)[nH]c(-c3cc(F)cc4[nH]ccc34)c2CC(C)C)c2cc[nH]c2c1` [compound 174] was tested, and the Kd was less than 20 µM.
`COc1cc(-c2c(C(=O)O)[nH]c(-c3cc(F)cc4[nH]ccc34)c2C(C)C)c2cc(C)[nH]c2c1` [compound 193] showed a Kd of less than 20 µM.
Molecule `O=C(O)c1ccc(-c2cccc3[nH]ccc23)[nH]1` [compound 134] has a Kd greater than 100 µM.
Molecule `COc1ccc(C)cc1-c1ccc(C(=O)O)[nH]1` [compound 137] has a Kd greater than 100 µM.
`CCc1c(-c2cccc3[nH]ccc23)[nH]c(C(=O)O)c1-c1ccccc1C(F)(F)F` [compound 82] showed a Kd of 20 to 50 µM.
Work on `CCOc1ccccc1-c1ccc(C(=O)O)[nH]1` [compound 140] yielded a Kd greater than 100 µM.
For `CCOc1cccc(-c2ccc(C(=O)O)[nH]2)c1` [compound 148], the Kd was greater than 100 µM.
Molecule `CC(C)c1c(-c2cc(F)cc3[nH]ccc23)[nH]c(C(=O)O)c1-c1cc(OC2CCC2)cc2[nH]ccc12` [compound 235] has a Kd of less than 20 µM.
In the case of `CC(C)c1c(-c2cc(F)cc3[nH]ccc23)[nH]c(CS(N)(=O)=O)c1-c1cccc2[nH]ccc12` [compound 219], the Kd is reported as less than 20 µM.
`CC(C)c1c(-c2cc(F)cc3[nH]ccc23)[nH]c(C(=O)O)c1-c1cccc2c1ccn2CS(C)(=O)=O` [compound 264] gave a Kd of less than 20 µM.
Molecule `CCc1c(-c2cccc3c2ccn3C)[nH]c(C(=O)O)c1-c1ccc(F)c(C)c1` [compound 109] has a Kd greater than 100 µM.
Molecule `Cc1cccc(-c2ccc(C(=O)O)[nH]2)c1` [compound 128] has a Kd greater than 100 µM.
For `CC(C)c1c(-c2cc(F)cc3[nH]ccc23)[nH]c(C(=O)O)c1-c1cc(C(F)(F)F)cc2c1ccn2CC(=O)O` [compound 54], the Kd was less than 20 µM.
With `CCn1c(C(=O)O)c(-c2cc(OC)cc3[nH]ccc23)c(C(C)C)c1-c1cc(F)cc2[nH]ccc12` [compound 71] the Kd was less than 20 µM.
Work on `CC(C)c1c(-c2cc(F)cc3[nH]ccc23)[nH]c(C(=O)O)c1-c1cc(C(=O)O)cc2[nH]ccc12` [compound 197] yielded a Kd of less than 20 µM.
`CC(C)c1c(-c2cc(F)cc3[nH]ccc23)[nH]c(C(=O)O)c1-c1ccnc2[nH]c(-c3ccsc3)cc12` [compound 250] was tested, and the Kd was less than 20 µM.
Molecule `CC(C)c1c(-c2cc(F)cc3[nH]ccc23)[nH]c(C(=O)O)c1-c1cccc2scnc12` [compound 172] has a Kd of less than 20 µM.
Molecule `CC(C)c1c(-c2cc(F)cc3[nH]ccc23)[nH]c(C(=O)O)c1-c1cccc2[nH]c(CS(N)(=O)=O)cc12` [compound 229] has a Kd of less than 20 µM.
`CCc1c(-c2cccc3[nH]ccc23)[nH]c(C(=O)O)c1-c1cccc2c1ccn2CC` [compound 21] showed a Kd of less than 20 µM.
For `Cc1ccc2[nH]ccc2c1-c1c(C(=O)O)[nH]c(-c2cc(F)cc3[nH]ccc23)c1C(C)C` [compound 241], the Kd was less than 20 µM.
Work on `CC(C)c1c(-c2cc(F)cc3[nH]ccc23)[nH]c(C(=O)O)c1-c1cc(C(=O)NCc2nccs2)cc2[nH]ccc12` [compound 200] yielded a Kd of less than 20 µM.
With `CCc1c(-c2cccc3[nH]ccc23)[nH]c(C(=O)O)c1-c1ccccc1-c1ccccc1` [compound 96] the Kd was 50 to 100 µM.
With `Cc1c[nH]c2cccc(-c3c(C(=O)O)[nH]c(-c4cccc5[nH]ccc45)c3C(C)C)c12` [compound 34] the Kd was less than 20 µM.
Molecule `CC(C)c1c(-c2cc(F)cc3[nH]cc(CCO)c23)[nH]c(C(=O)O)c1-c1c(Cl)ccc2[nH]ccc12` [compound 28] has a Kd of less than 20 µM.
Molecule `CCc1c(-c2cccc3[nH]ccc23)[nH]c(C(=O)O)c1-c1ccc(OC)cc1Cl` [compound 24] has a Kd of less than 20 µM.
